Consider 19 compounds from ChEMBL document CHEMBL5291721, “A preclinical secondary pharmacology resource illuminates target-adverse drug reaction associations of marketed drugs” (Nat Commun, 2023).

Some results are limits rather than exact numbers.

One test concerns the target Mu-type opioid receptor (Homo sapiens, UniProt P35372).
For test [1], the target named is T1, Estrogen receptor (Homo sapiens, UniProt P03372).
T1 sequence (P03372 whole entry): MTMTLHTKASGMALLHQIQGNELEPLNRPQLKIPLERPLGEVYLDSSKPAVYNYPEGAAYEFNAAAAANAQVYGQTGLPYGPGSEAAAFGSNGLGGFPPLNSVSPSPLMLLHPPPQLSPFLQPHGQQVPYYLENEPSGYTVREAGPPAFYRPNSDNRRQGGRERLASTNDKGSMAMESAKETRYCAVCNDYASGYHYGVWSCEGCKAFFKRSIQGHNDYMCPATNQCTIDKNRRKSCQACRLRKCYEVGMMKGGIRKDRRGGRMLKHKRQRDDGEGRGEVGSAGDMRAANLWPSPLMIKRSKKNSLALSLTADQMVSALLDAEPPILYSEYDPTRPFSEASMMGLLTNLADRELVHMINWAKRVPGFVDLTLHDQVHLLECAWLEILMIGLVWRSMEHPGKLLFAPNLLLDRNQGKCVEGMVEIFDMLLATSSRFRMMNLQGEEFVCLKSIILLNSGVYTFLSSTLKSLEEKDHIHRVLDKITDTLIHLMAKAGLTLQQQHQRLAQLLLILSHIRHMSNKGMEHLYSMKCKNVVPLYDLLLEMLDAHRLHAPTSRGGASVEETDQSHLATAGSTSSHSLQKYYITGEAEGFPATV

Test [2] has as its target Kappa-type opioid receptor (Homo sapiens, UniProt P41145).
For another test, the target named is Melanocortin receptor 4 (Homo sapiens, UniProt P32245).
Sequence of Melanocortin receptor 4 (P32245 whole entry): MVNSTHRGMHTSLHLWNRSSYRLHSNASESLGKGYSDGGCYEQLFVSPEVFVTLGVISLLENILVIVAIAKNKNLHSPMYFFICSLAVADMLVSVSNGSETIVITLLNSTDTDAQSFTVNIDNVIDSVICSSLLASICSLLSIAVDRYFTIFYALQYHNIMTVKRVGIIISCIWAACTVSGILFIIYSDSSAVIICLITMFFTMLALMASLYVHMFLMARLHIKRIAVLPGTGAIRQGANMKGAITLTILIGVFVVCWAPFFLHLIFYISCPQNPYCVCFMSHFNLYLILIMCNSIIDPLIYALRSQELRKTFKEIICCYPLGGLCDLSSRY
Test [3] deals with T2, Prostaglandin G/H synthase 1 (Homo sapiens, UniProt P23219). The format is functional.
T2 sequence (P23219 whole entry): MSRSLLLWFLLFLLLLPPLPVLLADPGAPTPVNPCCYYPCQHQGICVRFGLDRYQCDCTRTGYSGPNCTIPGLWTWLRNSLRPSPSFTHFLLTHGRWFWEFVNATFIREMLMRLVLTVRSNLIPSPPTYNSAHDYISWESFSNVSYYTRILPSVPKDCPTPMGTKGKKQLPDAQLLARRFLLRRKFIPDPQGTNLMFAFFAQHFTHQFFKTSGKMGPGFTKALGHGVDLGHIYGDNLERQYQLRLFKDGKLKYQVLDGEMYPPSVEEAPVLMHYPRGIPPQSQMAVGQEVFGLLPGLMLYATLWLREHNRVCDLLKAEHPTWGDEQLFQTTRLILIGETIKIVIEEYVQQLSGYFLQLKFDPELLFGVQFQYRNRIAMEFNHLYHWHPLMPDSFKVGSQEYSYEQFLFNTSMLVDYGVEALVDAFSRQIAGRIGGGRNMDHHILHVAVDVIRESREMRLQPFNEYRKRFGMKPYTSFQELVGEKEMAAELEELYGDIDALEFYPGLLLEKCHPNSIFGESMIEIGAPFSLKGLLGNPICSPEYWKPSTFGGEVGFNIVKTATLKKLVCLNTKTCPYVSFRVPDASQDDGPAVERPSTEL
The target in test [4] is Sodium-dependent dopamine transporter (Homo sapiens, UniProt Q01959).
Sequence of Sodium-dependent dopamine transporter (Q01959 whole entry): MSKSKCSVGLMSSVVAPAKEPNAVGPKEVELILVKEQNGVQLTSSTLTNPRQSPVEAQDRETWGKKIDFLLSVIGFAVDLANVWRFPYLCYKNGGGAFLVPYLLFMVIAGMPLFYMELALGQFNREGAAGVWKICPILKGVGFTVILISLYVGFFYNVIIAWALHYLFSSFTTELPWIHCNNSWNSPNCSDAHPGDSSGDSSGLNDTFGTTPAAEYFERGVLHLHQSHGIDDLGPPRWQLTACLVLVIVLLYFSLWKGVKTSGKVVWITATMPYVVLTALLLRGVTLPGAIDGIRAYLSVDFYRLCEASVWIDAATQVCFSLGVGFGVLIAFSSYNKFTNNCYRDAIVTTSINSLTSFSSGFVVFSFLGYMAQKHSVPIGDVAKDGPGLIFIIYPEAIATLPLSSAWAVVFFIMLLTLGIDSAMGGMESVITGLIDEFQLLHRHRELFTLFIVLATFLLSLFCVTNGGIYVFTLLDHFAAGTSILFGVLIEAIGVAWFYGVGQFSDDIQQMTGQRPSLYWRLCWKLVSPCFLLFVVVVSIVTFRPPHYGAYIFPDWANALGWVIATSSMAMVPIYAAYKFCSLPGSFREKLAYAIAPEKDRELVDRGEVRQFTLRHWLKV
Test [5] has as its target T2, Prostaglandin G/H synthase 1. The format is functional. The source holds these as a separate data set.
Test [6] addresses 3',5'-cyclic-AMP phosphodiesterase 4A (Homo sapiens, UniProt P27815). It is filed as functional.
The next test addresses T3, Thromboxane A2 receptor (Homo sapiens, UniProt P21731).
T3 sequence (P21731 whole entry): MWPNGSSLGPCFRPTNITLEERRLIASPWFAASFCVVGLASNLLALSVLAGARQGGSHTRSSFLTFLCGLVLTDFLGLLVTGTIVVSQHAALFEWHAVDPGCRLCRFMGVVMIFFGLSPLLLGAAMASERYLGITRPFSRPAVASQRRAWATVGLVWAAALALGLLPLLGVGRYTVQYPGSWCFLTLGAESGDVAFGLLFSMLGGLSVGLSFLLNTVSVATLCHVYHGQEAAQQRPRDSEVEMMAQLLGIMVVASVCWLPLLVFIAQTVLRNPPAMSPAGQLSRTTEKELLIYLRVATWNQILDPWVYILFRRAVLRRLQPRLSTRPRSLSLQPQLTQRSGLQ
It is filed as functional, cell-based.

Test [7] has as its target T4, Amine oxidase [flavin-containing] A (Homo sapiens, UniProt P21397).
T4 sequence (P21397 whole entry): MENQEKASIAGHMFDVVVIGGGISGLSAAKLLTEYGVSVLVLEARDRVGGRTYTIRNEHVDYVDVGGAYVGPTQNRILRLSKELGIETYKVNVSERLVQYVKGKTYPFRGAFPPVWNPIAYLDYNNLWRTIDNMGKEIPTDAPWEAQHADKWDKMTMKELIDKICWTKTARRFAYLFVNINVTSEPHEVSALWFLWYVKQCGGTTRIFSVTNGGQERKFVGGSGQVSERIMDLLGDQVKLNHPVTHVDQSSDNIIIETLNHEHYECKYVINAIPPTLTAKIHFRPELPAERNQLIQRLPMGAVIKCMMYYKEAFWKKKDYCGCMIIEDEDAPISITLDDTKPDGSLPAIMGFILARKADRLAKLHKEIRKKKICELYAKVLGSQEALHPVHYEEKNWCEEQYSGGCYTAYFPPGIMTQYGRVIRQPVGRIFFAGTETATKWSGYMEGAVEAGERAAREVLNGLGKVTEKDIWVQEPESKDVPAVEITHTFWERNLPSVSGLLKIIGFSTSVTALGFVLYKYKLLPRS
The format is functional.

Test [8] concerns the target T1, Estrogen receptor. This is another data set of the same source.
The target of test [9] is T5, Alpha-1A adrenergic receptor (Homo sapiens, UniProt P35348).
T5 sequence (P35348 whole entry): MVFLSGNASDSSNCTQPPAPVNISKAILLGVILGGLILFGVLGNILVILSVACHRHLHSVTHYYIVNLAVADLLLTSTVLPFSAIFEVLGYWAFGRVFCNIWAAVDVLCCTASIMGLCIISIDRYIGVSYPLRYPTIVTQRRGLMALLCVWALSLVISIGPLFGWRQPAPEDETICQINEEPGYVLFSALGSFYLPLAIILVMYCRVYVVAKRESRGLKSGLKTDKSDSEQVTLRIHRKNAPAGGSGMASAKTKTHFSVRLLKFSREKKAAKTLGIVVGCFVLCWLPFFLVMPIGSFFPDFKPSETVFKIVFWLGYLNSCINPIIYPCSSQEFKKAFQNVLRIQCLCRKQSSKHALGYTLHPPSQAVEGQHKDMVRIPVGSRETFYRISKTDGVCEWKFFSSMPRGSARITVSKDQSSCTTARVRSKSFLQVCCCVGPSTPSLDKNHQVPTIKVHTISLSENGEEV
The format is functional, cell-based.

A further test deals with T6, Endothelin-1 receptor (Homo sapiens, UniProt P25101).
T6 sequence (P25101 whole entry): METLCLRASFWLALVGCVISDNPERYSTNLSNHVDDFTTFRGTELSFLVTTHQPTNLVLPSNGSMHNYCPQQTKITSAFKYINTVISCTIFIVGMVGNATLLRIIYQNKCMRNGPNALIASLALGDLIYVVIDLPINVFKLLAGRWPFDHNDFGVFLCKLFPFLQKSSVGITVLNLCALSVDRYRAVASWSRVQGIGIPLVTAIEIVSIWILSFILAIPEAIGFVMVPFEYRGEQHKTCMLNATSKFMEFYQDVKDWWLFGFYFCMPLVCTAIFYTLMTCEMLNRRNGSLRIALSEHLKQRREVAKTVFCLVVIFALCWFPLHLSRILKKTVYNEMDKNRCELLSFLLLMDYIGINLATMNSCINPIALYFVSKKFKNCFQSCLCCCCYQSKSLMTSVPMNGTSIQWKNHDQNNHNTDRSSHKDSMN
Also: assay procedure not described here.

Sequence of 3',5'-cyclic-AMP phosphodiesterase 4A (P27815 whole entry): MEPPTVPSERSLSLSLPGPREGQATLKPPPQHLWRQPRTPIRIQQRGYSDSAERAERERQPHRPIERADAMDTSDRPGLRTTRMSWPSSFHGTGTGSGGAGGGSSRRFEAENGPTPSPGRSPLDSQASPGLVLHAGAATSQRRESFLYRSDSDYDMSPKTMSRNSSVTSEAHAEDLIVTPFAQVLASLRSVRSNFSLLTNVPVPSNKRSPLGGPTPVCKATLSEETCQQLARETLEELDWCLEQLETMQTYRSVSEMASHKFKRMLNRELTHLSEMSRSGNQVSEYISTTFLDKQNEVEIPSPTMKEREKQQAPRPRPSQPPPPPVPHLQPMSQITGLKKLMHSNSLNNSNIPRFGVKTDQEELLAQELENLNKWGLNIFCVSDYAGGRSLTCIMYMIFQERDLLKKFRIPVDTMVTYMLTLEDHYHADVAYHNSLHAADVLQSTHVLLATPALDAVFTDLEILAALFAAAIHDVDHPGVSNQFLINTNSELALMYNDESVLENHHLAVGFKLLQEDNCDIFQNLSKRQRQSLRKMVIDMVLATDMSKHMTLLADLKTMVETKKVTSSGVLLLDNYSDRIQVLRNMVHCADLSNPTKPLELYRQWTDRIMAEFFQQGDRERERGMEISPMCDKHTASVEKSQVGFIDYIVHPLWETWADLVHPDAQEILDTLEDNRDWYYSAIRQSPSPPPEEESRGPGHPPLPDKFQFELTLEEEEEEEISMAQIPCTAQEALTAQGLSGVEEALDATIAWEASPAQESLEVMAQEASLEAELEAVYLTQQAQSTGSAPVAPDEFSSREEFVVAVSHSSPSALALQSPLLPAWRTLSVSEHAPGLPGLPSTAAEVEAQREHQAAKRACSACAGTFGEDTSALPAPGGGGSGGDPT
Sequence of Kappa-type opioid receptor (P41145 whole entry): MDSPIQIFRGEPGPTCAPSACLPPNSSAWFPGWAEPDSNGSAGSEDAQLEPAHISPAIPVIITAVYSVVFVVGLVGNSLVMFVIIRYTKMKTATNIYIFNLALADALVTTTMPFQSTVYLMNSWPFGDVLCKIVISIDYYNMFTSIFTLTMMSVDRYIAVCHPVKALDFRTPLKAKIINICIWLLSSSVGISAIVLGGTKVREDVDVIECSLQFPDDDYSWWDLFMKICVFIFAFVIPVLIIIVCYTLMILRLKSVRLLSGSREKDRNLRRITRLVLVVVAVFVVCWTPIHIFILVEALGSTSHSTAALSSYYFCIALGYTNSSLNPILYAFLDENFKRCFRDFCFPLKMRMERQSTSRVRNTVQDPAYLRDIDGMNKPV
Sequence of Mu-type opioid receptor (P35372 whole entry): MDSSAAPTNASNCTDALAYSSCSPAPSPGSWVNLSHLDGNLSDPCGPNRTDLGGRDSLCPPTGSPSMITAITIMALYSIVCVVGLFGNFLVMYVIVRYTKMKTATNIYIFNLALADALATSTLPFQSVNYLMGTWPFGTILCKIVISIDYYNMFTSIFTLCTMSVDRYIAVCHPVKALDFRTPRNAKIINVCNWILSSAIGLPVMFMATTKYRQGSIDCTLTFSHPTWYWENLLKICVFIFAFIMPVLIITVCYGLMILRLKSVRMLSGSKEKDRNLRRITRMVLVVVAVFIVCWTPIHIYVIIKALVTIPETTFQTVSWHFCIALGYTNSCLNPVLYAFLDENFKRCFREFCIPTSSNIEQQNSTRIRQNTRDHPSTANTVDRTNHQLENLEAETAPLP

As to `Cc1cc2cc3c(C)cc(=O)oc3c(C)c2o1` [TRIOXSALEN], the AC50 is above 30 µM on Mu-type opioid receptor, above 30 µM at Estrogen receptor [1], above 10 µM in test [2] and above 10 µM on Melanocortin receptor 4.

As for `CCOC(=O)N1CSC[C@H]1C(=O)O` [TELMESTEINE], the AC50 (in test [3]; in test [4]; in [5]; in [6]; at Thromboxane A2 receptor; in test [7]) was above 30 µM throughout. This compound registered an AC50 on Estrogen receptor [8] above 30 µM.

`Cc1ncc(COP(=O)(O)O)c(C=O)c1O` [PYRIDOXAL PHOSPHATE ANHYDROUS]: the AC50 in test [3] was 8.66 µM; in [4] it was above 30 µM; in test [5], 6.68 µM; in [6], 19.5 µM; at Thromboxane A2 receptor, above 30 µM; in test [7] it was above 30 µM. This compound gave an AC50 on Estrogen receptor [8] of 10.3 µM.

Take `CCCc1nc(C(C)(C)O)c(C(=O)O)n1Cc1ccc(-c2ccccc2-c2nnn[nH]2)cc1` [OLMESARTAN]: the AC50 (in [3]; in test [4]; in test [5]; in test [6]; on Thromboxane A2 receptor; in test [7]) was above 30 µM each time. This compound also gave an AC50 on Estrogen receptor [8] above 30 µM.

As for `C[C@H](Cc1ccc(O)c(O)c1)[C@@H](C)Cc1ccc(O)c(O)c1` [MASOPROCOL], the AC50 is above 30 µM at Mu-type opioid receptor; above 30 µM in [9]; 0.749 µM on Estrogen receptor [1]; 15 µM in test [2]; above 10 µM at Melanocortin receptor 4.

With `CC(N)Cc1ccc(O)cc1` (stereo not drawn) [HYDROXYAMPHETAMINE], the AC50 (in [3]; in [4]; in [5]; in [6]; on Thromboxane A2 receptor; in [7]) was above 30 µM throughout. The same compound had an AC50 on Estrogen receptor [8] above 30 µM.

For the compound `CC(C)(C)C(=O)OCC(=O)[C@H]1CC[C@H]2[C@@H]3CCC4=CC(=O)CC[C@]4(C)[C@H]3CC[C@]12C` [DESOXYCORTICOSTERONE PIVALATE], the AC50 was above 30 µM at Mu-type opioid receptor; above 30 µM in [9]; above 30 µM on Estrogen receptor [1]; above 10 µM in test [2]; above 10 µM at Melanocortin receptor 4.

On to `NC(=O)OCC(O)COc1ccc(Cl)cc1` (stereo not drawn) [CHLORPHENESIN CARBAMATE], for which the AC50 (in test [3]; in test [4]; in test [5]; in test [6]; at Thromboxane A2 receptor; in test [7]) was above 30 µM each time. The AC50 on Estrogen receptor [8] is above 30 µM.

Consider `[H]/N=C(/N)N/C(=N/[H])NCCc1ccccc1` [PHENFORMIN], for which the AC50 is above 30 µM at Mu-type opioid receptor; above 30 µM at Estrogen receptor [1]; above 30 µM on Endothelin-1 receptor; above 10 µM in test [2]; above 30 µM at Melanocortin receptor 4.

Consider `NCC(CC(=O)O)c1ccccc1` (stereo not drawn) [PHENIBUT], for which the AC50 (in [3]; in [4]; in test [5]; in test [6]; at Thromboxane A2 receptor; in test [7]) was above 30 µM in each case. Also, the AC50 on Estrogen receptor [8] is above 30 µM.

As to `CCC[C@H](NC(=O)[C@@H]1[C@H]2CCC[C@H]2CN1C(=O)[C@@H](NC(=O)[C@@H](NC(=O)c1cnccn1)C1CCCCC1)C(C)(C)C)C(=O)C(=O)NC1CC1`, the AC50 was above 30 µM on Mu-type opioid receptor, above 30 µM on Estrogen receptor [1], above 10 µM in test [2] and above 30 µM at Melanocortin receptor 4.

As for `CN1C(=O)/C(=N\NC(N)=S)c2ccccc21` [METHISAZONE], the AC50 is above 10 µM in test [3]; above 30 µM in test [4]; above 30 µM in test [5]; above 30 µM in [6]; above 10 µM on Thromboxane A2 receptor; above 30 µM in [7]. This compound also registered an AC50 on Estrogen receptor [8] above 30 µM.

For `CCN(CC)C(=S)S` [DITIOCARB], the AC50 is above 30 µM in test [3]; above 30 µM in [4]; 10.3 µM in [5]; above 30 µM in test [6]; above 1 µM on Thromboxane A2 receptor; above 30 µM in test [7]. Besides, the AC50 at Estrogen receptor [8] was above 30 µM.

`Cc1noc(NS(=O)(=O)c2ccc(N)cc2)c1C` [SULFISOXAZOLE]: the AC50 on Mu-type opioid receptor is above 30 µM; in test [9], above 30 µM; at Estrogen receptor [1] it was above 10 µM; in test [2] it was above 10 µM; on Melanocortin receptor 4, above 10 µM.

As for `CC(C)NCC(O)c1ccc(O)c(O)c1` (stereo not drawn) [ISOPROTERENOL], the AC50 at Mu-type opioid receptor was above 30 µM; on Endothelin-1 receptor it was above 30 µM; in [2], above 10 µM; at Melanocortin receptor 4 it was above 30 µM.

Consider `CCCCC1C(=O)N(c2ccccc2)N(c2ccccc2)C1=O` [PHENYLBUTAZONE], for which the AC50 at Mu-type opioid receptor was above 30 µM; at Estrogen receptor [1] it was above 10 µM; in test [2], above 10 µM; at Melanocortin receptor 4, above 30 µM.

Turning to `OC1(c2ccc(Cl)cc2)c2ccccc2C2=NCCN21` (stereo not drawn) [MAZINDOL], the AC50 at Mu-type opioid receptor was above 10 µM; in test [9] it was above 30 µM; at Estrogen receptor [1] it was above 30 µM; at Endothelin-1 receptor it was above 30 µM; in test [2], above 30 µM; at Melanocortin receptor 4, above 30 µM.

As for `CC1OC2(CS1)CN1CCC2CC1` (stereo not drawn) [CEVIMELINE], the AC50 is above 30 µM at Mu-type opioid receptor; above 30 µM in test [9]; above 10 µM on Estrogen receptor [1]; above 10 µM in test [2]; above 10 µM at Melanocortin receptor 4.

Consider `CCC1(c2ccccc2)CCC(=O)NC1=O` (stereo not drawn) [GLUTETHIMIDE], for which the AC50 on Mu-type opioid receptor was above 30 µM; in test [9], above 30 µM; at Estrogen receptor [1], above 10 µM; in test [2] it was above 10 µM; on Melanocortin receptor 4 it was above 10 µM.
